Experimental data published in patent US10550113B2, “2-phenyl-3H-imidazo[4,5-B]pyridine derivates useful as inhibitors of mammalian tyrosine kinase ROR1 activity” (Kancera AB, priority 2015, dated 2020).

What was measured:
PBMC from CLL patients = experiment: CellTiter-Blue cell viability assay, cell toxicity in PBMC from CLL patients; format: cell-based; details: Homo sapiens, 50 000 cells/well, cultured 24, 48 and 72 h (time of the IC50 not stated), % cytotoxicity vs 0.2% DMSO
Description: (§1) Method for Measurement of Cell Toxicity
(§2) The CellTiter-Blue® Cell Viability Assay provides a homogeneous, fluorometric method for estimating the number of viable cells present in multi-well plates. The assay uses the indicator dye resazurin to measure the metabolic capacity of cells. Viable cells retain the ability to reduce resazurin into resorufin, which is highly fluorescent.
(§3) Stock solutions (10 or 100 mM in DMSO) of compounds were serially diluted 1:2 in 11 concentrations and 25 nL/well (100 mM stock) or 50 nL/well (10 mM stock) were acoustically dispensed in assay plates with an EDC acoustic dispenser. Final starting concentration in the assay was 20 μM (0.2% DMSO) or 100 μM (0.1% DMSO) for test compounds.
(§4) Peripheral blood mononuclear cells (PBMC) from CLL patients or healthy volunteers were seeded in assay plates (384-well black/clear, Greiner #781091) pre-dispensed with compounds, 25 μL/well, and cultured for 24, 48 and 72 h. The cell concentration was 50 000 cells/well for PBMC from CLL patients or healthy volunteers. After 24, 48 and 72 h culture, Celltiter Blue reagent was added (5 μL/well) and the plates were incubated for 2 h. The plates were read in an Envision fluorescence reader (PerkinElmer) with Ex544 nm/Em590 nm. Results were calculated as % cytotoxicity compared to background (cells treated with 0.2% DMSO).
(§5) Thus, IC50 values for cell toxicity in PBMC from CLL patients as well as healthy volunteers for some compounds of the invention are shown in Table 3.

[1] = CellTiter-Blue cell viability assay, cell toxicity in PBMC from healthy volunteers; format: cell-based; details: human, 50 000 cells/well, cultured 24, 48 and 72 h (time of the IC50 not stated), % cytotoxicity vs 0.2% DMSO
Description: as §1, §2, §3, §4, §5

Compound | IC50 (PBMC from CLL patients) | IC50 [1]
CN(C)CCNC(=O)COc1ccc(-c2nc3c(N[C@H]4CCN(Cc5ccccc5)C4)c(Cl)cnc3[nH]2)cc1 [Example 2, 2-[4-(7-{[(3S)-1-benzylpyrrolidin-3-yl]amino}-6-chloro-3H-imidazo[4,5-b]pyridin-2-yl)phenoxy]-N-[2-(dimethylamino)ethyl]acetamide] | 1.3 µM | 13.8 µM
CN(C)CCNC(=O)COc1ccc(-c2nc3c(NC4CCN(CCc5ccccc5)CC4)c(Cl)cnc3[nH]2)cc1 [Example 3, 2-[4-(6-chloro-7-{[1-(2-phenylethyl)piperidin-4-yl]amino}-3H-imidazo[4,5-b]pyridin-2-yl)phenoxy]-N-[2-(dimethylamino)ethyl]acetamide] | 1.2 µM | 9.9 µM
CNC(=O)COc1ccc(-c2nc3c(NC4CCN(Cc5ccccc5)CC4)c(Cl)cnc3[nH]2)cc1 [Example 11, 2-(4-{7-[(1-benzylpiperidin-4-yl)amino]-6-chloro-3H-imidazo[4,5-b]pyridin-2-yl}phenoxy)-N-methylacetamide] | 0.44 µM | 14.8 µM
CN(C)CCNC(=O)COc1ccc(-c2nc3c(NC4CCN(Cc5ccsc5)CC4)c(Cl)cnc3[nH]2)cc1 [Example 15, 2-[4-(6-chloro-7-{[1-(thiophen-3-ylmethyl)piperidin-4-yl]amino}-3H-imidazo[4,5-b]pyridin-2-yl)phenoxy]-N-[2-(dimethylamino)ethyl]acetamide] | 0.79 µM | 13.9 µM
CNC(=O)COc1ccc(-c2nc3c(N(C)C4CCN(Cc5ccccc5)CC4)c(Cl)cnc3[nH]2)cc1 [Example 19, 2-(4-{7-[(1-benzylpiperidin-4-yl)(methyl)amino]-6-chloro-3H-imidazo[4,5-b]pyridin-2-yl}phenoxy)-N-methylacetamide] | 3.23 µM | > 20 µM
Cc1ccc(CN2CCC(Nc3c(Cl)cnc4[nH]c(-c5ccc(OCC(=O)NCC(C)(C)N(C)C)cc5)nc34)CC2)cc1 [Example 27, 2-[4-(6-chloro-7-{[1-(4-methylbenzyl)piperidin-4-yl]amino}-3H-imidazo[4,5-b]pyridin-2-yl)phenoxy]-N-[2-(dimethylamino)-2-methylpropyl]acetamide] | 1.42 µM | 14.1 µM
CNC(=O)COc1ccc(-c2nc3c(N[C@H]4CCN(Cc5ccc(F)c(F)c5)C4)c(Cl)cnc3[nH]2)cc1 [Example 34, 2-[4-(6-chloro-7-{[(3S)-1-(3,4-difluorobenzyl)pyrrolidin-3-yl]amino}-3H-imidazo[4,5-b]pyridin-2-yl)phenoxy]-N-methylacetamide] | 3.11 µM | 17.7 µM
CNC(=O)COc1ccc(-c2nc3c(N[C@H]4CCN(Cc5ccc(OC)cc5)C4)c(Cl)cnc3[nH]2)cc1 [Example 43, 2-[4-(6-chloro-7-{[(3S)-1-(4-methoxybenzyl)pyrrolidin-3-yl]amino}-3H-imidazo[4,5-b]pyridin-2-yl)phenoxy]-N-methylacetamide] | 1.74 µM | > 20 µM
CNC(=O)COc1ccc(-c2nc3c(NC4CCN(C5CCCCC5)CC4)c(Cl)cnc3[nH]2)cc1 [Example 56, 2-(4-{6-chloro-7-[(1-cyclohexylpiperidin-4-yl)amino]-3H-imidazo[4,5-b]pyridin-2-yl}phenoxy)-N-methylacetamide] | 0.37 µM | > 20 µM
CN(C)C(=O)COc1ccc(-c2nc3c(N[C@H]4CCN(Cc5ccccc5)C4)c(Cl)cnc3[nH]2)cc1 [Example 64, 2-[4-(7-{[(3S)-1-benzylpyrrolidin-3-yl]amino}-6-chloro-3H-imidazo[4,5-b]pyridin-2-yl)phenoxy]-N,N-dimethylacetamide] | 0.89 µM | 13.9 µM
CNC(=O)COc1ccc(-c2nc3c(NC4CCN(Cc5ccncc5)CC4)c(Cl)cnc3[nH]2)cc1 [Example 71, 2-[4-(6-chloro-7-{[1-(pyridin-4-ylmethyl)piperidin-4-yl]amino}-3H-imidazo[4,5-b]pyridin-2-yl)phenoxy]-N-methylacetamide] | 1.9 µM | > 20 µM
CNC(=O)COc1ccc(-c2nc3c(NC4CCN(Cc5ccc(NC(C)=O)cc5)CC4)c(Cl)cnc3[nH]2)cc1 [Example 75, 2-[4-(7-{[1-(4-acetamidobenzyl)piperidin-4-yl]amino}-6-chloro-3H-imidazo[4,5-b]pyridin-2-yl)phenoxy]-N-methylacetamide] | 1.12 µM | > 20 µM
CNC(=O)COc1ccc(-c2nc3c(NC4CCN(Cc5ccc(C)cc5)CC4)c(Cl)cnc3[nH]2)cc1 [Example 82, 2-[4-(6-chloro-7-{[1-(4-methylbeiizyl)piperidin-4-yl]amino}-3H-imidazo[4,5-b]pyridin-2-yl)phenoxy]-N-methylacetamide] | 0.48 µM | > 20 µM
CNC(=O)COc1ccc(-c2nc3c(NC4CCN(CCOc5ccccc5)CC4)c(Cl)cnc3[nH]2)cc1 [Example 96, 2-[4-(6-chloro-7-{[1-(2-phenoxyethyl)piperidin-4-yl]amino}-3H-imidazo[4,5-b]pyridin-2-yl)phenoxy]-N-methylacetamide] | 0.31 µM | 13.6 µM
CNC(=O)COc1ccc(-c2nc3c(NC4CCN(Cc5ccc(-n6cncn6)cc5)CC4)c(Cl)cnc3[nH]2)cc1 [Example 99, 2-{4-[6-chloro-7-({1-[4-(1H-1,2,4-triazol-1-yl)benzyl]piperidin-4-yl}amino)-3H-imidazo[4,5-b]pyridin-2-yl]phenoxy}-N-methylacetamide] | 0.27 µM | > 20 µM
CNC(=O)COc1cccc(-c2nc3c(NC4CCN(C)CC4)c(Cl)cnc3[nH]2)c1 [Example 117, 2-(3-{6-chloro-7-[(1-methylpiperidin-4-yl)amino]-3H-imidazo[4,5-b]pyridin-2-yl}phenoxy)-N-methylacetamide] | 0.32 µM | > 20 µM
CCN1CC[C@H](Nc2c(Cl)cnc3[nH]c(-c4ccc(OCC(=O)NC)cc4)nc23)C1 [Example 132, 2-[4-(6-chloro-7-{[(3S)-1-ethylpyrrolidin-3-yl]amino}-3H-imidazo[4,5-b]pyridin-2-yl)phenoxy]-N-methylacetamide] | 0.86 µM | > 20 µM
CN1CCC(Nc2c(Cl)cnc3[nH]c(-c4ccc(OCC(=O)NCCC5CCOCC5)cc4)nc23)CC1 [Example 147, 2-(4-{6-chloro-7-[(1-methylpiperidin-4-yl)amino]-3H-imidazo[4,5-b]pyridin-2-yl}phenoxy)-N-[2-(tetrahydro-2H-pyran-4-yl)ethyl]acetamide] | 0.14 µM | > 20 µM
CNC(=O)COc1ccc(-c2nc3c(NC4CCN(C)CC4)c(Br)cnc3[nH]2)c(C)c1 [Example 159, 2-(4-{6-bromo-7-[(1-methylpiperidin-4-yl)amino]-3H-imidazo[4,5-b]pyridin-2-yl}-3-methylphenoxy)-N-methylacetamide] | 0.31 µM | > 20 µM
CNC(=O)COc1ccc(-c2nc3c(NC4CCN(C)CC4)c(Cl)cnc3[nH]2)cc1OC [Example 168, 2-(4-{6-chloro-7-[(1-methylpiperidin-4-yl)amino]-3H-imidazo[4,5-b]pyridin-2-yl}-2-methoxyphenoxy)-N-methylacetamide] | 0.25 µM | > 20 µM
CNC(=O)COc1ccc(-c2nc3c(NC4CCN(C)CC4)c(Br)cnc3[nH]2)cc1F [Example 184, 2-(4-{6-bromo-7-[(1-methylpiperidin-4-yl)amino]-3H-imidazo[4,5-b]pyridin-2-yl}-2-fluorophenoxy)-N-methylacetamide] | 0.11 µM | > 20 µM
